Experiment: all-hydrocarbon stapling by ring-closing olefin metathesis between S5/S5 (i,i+4) or R8/S5 (i,i+7) olefinic residues, Grubbs 1st-generation catalyst (10 mM in DCE per text; 6 mM per schemes), 2 x 2 h, on Rink Amide MBHA resin
Conditions: the molecule shown is the open-chain precursor, 35.0 °C, 60 steps
[1] = 33-membered ring, 1,2-dichloroethane, 4.0 h
[2] = 21-membered ring, 1,2-dichloroethane, 4.0 h

Compound	ring closure, overall yield [1]	ring closure, overall yield [2]	further results
C=CCCCCCC[C@@](C)(NC(=O)[C@@H](NC(=O)[C@H](C)NC(=O)CNC(=O)[C@H](CCCCNC(=O)OC(C)(C)C)NC(=O)[C@H](CC(C)C)NC(=O)[C@@H](NC(=O)[C@H](CCCCNC(=O)OC(C)(C)C)NC(=O)[C@H](CCCCNC(=O)OC(C)(C)C)NC(=O)[C@H](CC(C)C)NC(=O)[C@H](CC(=O)NC(c1ccccc1)(c1ccccc1)c1ccccc1)NC(=O)[C@H](CC(=O)OC(C)(C)C)NC(=O)[C@H](CCCCNC(=O)OC(C)(C)C)NC(=O)[C@@H](NC(=O)[C@H](CCC(=O)OC(C)(C)C)NC(=O)[C@@H]1CCCN1C(=O)[C@H](COC(C)(C)C)NC(=O)[C@H](CC(C)C)NC(=O)[C@H](CCCCNC(=O)OC(C)(C)C)NC(=O)[C@@H](NC(=O)OCC1c2ccccc2-c2ccccc21)[C@@H](C)CC)[C@@H](C)OC(C)(C)C)C(C)C)[C@@H](C)CC)C(=O)NCC(=O)N[C@@H](C)C(=O)N[C@H](C(=O)N[C@@H](C)C(=O)N[C@H](C(=O)N[C@@H](C)C(=O)N[C@@](C)(CCCC=C)C(=O)N[C@@H](CCSC)C(=O)N[C@H](C(N)=O)C(C)C)C(C)C)[C@@H](C)CC	7.25%		
C=CCCCCCC[C@@](C)(NC(=O)[C@H](CC(=O)OC(C)(C)C)NC(=O)[C@H](CCCCNC(=O)OC(C)(C)C)NC(=O)[C@@H](NC(=O)[C@H](CCC(=O)OC(C)(C)C)NC(=O)[C@@H]1CCCN1C(=O)[C@H](COC(C)(C)C)NC(=O)[C@H](CC(C)C)NC(=O)[C@H](CCCCNC(=O)OC(C)(C)C)NC(=O)[C@@H](NC(=O)OCC1c2ccccc2-c2ccccc21)[C@@H](C)CC)[C@@H](C)OC(C)(C)C)C(=O)N[C@@H](CC(C)C)C(=O)N[C@@H](CCCCNC(=O)OC(C)(C)C)C(=O)N[C@@H](CCCCNC(=O)OC(C)(C)C)C(=O)N[C@H](C(=O)N[C@@H](CC(C)C)C(=O)N[C@@H](CCCCNC(=O)OC(C)(C)C)C(=O)N[C@@](C)(CCCC=C)C(=O)N[C@@H](C)C(=O)N[C@H](C(=O)N[C@@H](CCCCNC(=O)OC(C)(C)C)C(=O)NCC(=O)N[C@@H](C)C(=O)N[C@H](C(=O)N[C@@H](C)C(=O)N[C@H](C(=O)N[C@@H](C)C(=O)N[C@@H](CCCCNC(=O)OC(C)(C)C)C(=O)N[C@@H](CCSC)C(=O)N[C@H](C(N)=O)C(C)C)C(C)C)[C@@H](C)CC)[C@@H](C)CC)C(C)C	6.51%		
C=CCCC[C@](C)(NC(=O)CNC(=O)[C@H](CCCCNC(=O)OC(C)(C)C)NC(=O)[C@@H](NC(=O)[C@H](C)NC(=O)CNC(=O)[C@H](CCCCNC(=O)OC(C)(C)C)NC(=O)[C@H](CC(C)C)NC(=O)[C@@H](NC(=O)[C@H](CCCCNC(=O)OC(C)(C)C)NC(=O)[C@H](CCCCNC(=O)OC(C)(C)C)NC(=O)[C@H](CC(C)C)NC(=O)[C@H](CC(=O)NC(c1ccccc1)(c1ccccc1)c1ccccc1)NC(=O)[C@H](CC(=O)OC(C)(C)C)NC(=O)[C@H](CCCCNC(=O)OC(C)(C)C)NC(=O)[C@@H](NC(=O)[C@H](CCC(=O)OC(C)(C)C)NC(=O)[C@@H]1CCCN1C(=O)[C@H](COC(C)(C)C)NC(=O)[C@H](CC(C)C)NC(=O)[C@H](CCCCNC(=O)OC(C)(C)C)NC(=O)[C@@H](NC(=O)OCC1c2ccccc2-c2ccccc21)[C@@H](C)CC)[C@@H](C)OC(C)(C)C)C(C)C)[C@@H](C)CC)C(=O)N[C@H](C(=O)N[C@@H](C)C(=O)N[C@H](C(=O)N[C@@](C)(CCCC=C)C(=O)N[C@@H](CCCCNC(=O)OC(C)(C)C)C(=O)N[C@@H](CCSC)C(=O)N[C@H](C(N)=O)C(C)C)C(C)C)[C@@H](C)CC		13.1%	
C=CCCC[C@](C)(NC(=O)[C@H](CC(=O)OC(C)(C)C)NC(=O)[C@H](CCCCNC(=O)OC(C)(C)C)NC(=O)[C@@H](NC(=O)[C@](C)(CCCC=C)NC(=O)[C@@H]1CCCN1C(=O)[C@H](COC(C)(C)C)NC(=O)[C@H](CC(C)C)NC(=O)[C@H](CCCCNC(=O)OC(C)(C)C)NC(=O)[C@@H](NC(=O)OCC1c2ccccc2-c2ccccc21)[C@@H](C)CC)[C@@H](C)OC(C)(C)C)C(=O)N[C@@H](CC(C)C)C(=O)N[C@@H](CCCCNC(=O)OC(C)(C)C)C(=O)N[C@@H](CCCCNC(=O)OC(C)(C)C)C(=O)N[C@H](C(=O)N[C@@H](CC(C)C)C(=O)N[C@@H](CCCCNC(=O)OC(C)(C)C)C(=O)NCC(=O)N[C@@H](C)C(=O)N[C@H](C(=O)N[C@@H](CCCCNC(=O)OC(C)(C)C)C(=O)NCC(=O)N[C@@H](C)C(=O)N[C@H](C(=O)N[C@@H](C)C(=O)N[C@H](C(=O)N[C@@H](C)C(=O)N[C@@H](CCCCNC(=O)OC(C)(C)C)C(=O)N[C@@H](CCSC)C(=O)N[C@H](C(N)=O)C(C)C)C(C)C)[C@@H](C)CC)[C@@H](C)CC)C(C)C		6.43%	
C=CCCC[C@](C)(NC(=O)[C@H](CCCCNC(=O)OC(C)(C)C)NC(=O)[C@H](CC(C)C)NC(=O)[C@@H](NC(=O)[C@H](CCCCNC(=O)OC(C)(C)C)NC(=O)[C@H](CCCCNC(=O)OC(C)(C)C)NC(=O)[C@H](CC(C)C)NC(=O)[C@H](CC(=O)NC(c1ccccc1)(c1ccccc1)c1ccccc1)NC(=O)[C@H](CC(=O)OC(C)(C)C)NC(=O)[C@H](CCCCNC(=O)OC(C)(C)C)NC(=O)[C@@H](NC(=O)[C@H](CCC(=O)OC(C)(C)C)NC(=O)[C@@H]1CCCN1C(=O)[C@H](COC(C)(C)C)NC(=O)[C@H](CC(C)C)NC(=O)[C@H](CCCCNC(=O)OC(C)(C)C)NC(=O)[C@@H](NC(=O)OCC1c2ccccc2-c2ccccc21)[C@@H](C)CC)[C@@H](C)OC(C)(C)C)C(C)C)C(=O)N[C@@H](C)C(=O)N[C@H](C(=O)N[C@@H](CCCCNC(=O)OC(C)(C)C)C(=O)N[C@@](C)(CCCC=C)C(=O)N[C@@H](C)C(=O)N[C@H](C(=O)N[C@@H](C)C(=O)N[C@H](C(=O)N[C@@H](C)C(=O)N[C@@H](CCCCNC(=O)OC(C)(C)C)C(=O)N[C@@H](CCSC)C(=O)N[C@H](C(N)=O)C(C)C)C(C)C)[C@@H](C)CC)[C@@H](C)CC		18.5%	
final: H-I-K-L-S-P-[S5]-T-K-D-[S5]-L-K-K-V-L-K-G-[S5]-I-K-G-[S5]-I-A-V-A-K-M-V-NH2; 1st RCM on Fmoc-[S5]-I-K-G-[S5]-I-A-V-A-K-M-V-resin, 2nd RCM on Fmoc-[S5]-T-K-D-[S5]-L-K-K-V-L-K-G-[S5]-I-K-G-[S5]-I-A-V-A-K-M-V-resin (C-terminal S5 pair already stapled)			ring closure, overall yield (21-membered ring, 1,2-dichloroethane): 5.43%
